From ChEMBL document CHEMBL1201862, “PubChem BioAssay data set” (2004)
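Grown in 96-well plates, cells were treated for 48 hours with each compound at five concentrations. Insufficient inhibition: endpoint recorded as highest concentration tested. At the GI50, growth is halved.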 Activity calls are given as the source filed them. Cut-off read from the data, not from the text of the source: active = GI50 up to about 1.1 µM and inactive = higher.

Legend:
Experiment in all cases: inhibition of tumour cell growth, NCI panel, 48 h
HOP-62 = test system: HOP-62
NCI-H23 = test system: NCI-H23
PC-3 = test system: PC-3
COLO 205 = test system: COLO 205
CCRF-CEM = test system: CCRF-CEM
HOP-92 = test system: HOP-92
HL-60 = test system: HL-60
EKVX = test system: EKVX
SK-OV-3 = test system: SK-OV-3
OVCAR-5 = test system: OVCAR-5
RPMI-8226 = test system: RPMI-8226
U-251 = test system: U-251
CAKI-1 = test system: CAKI-1
MOLT-4 = test system: MOLT-4
SN12C = test system: SN12C
NCI-H226 = test system: NCI-H226
LOX IMVI = test system: LOX IMVI
MDA-N = test system: MDA-N
Malme-3M = test system: Malme-3M

Row | SMILES | GI50 (HOP-62) | GI50 (NCI-H23) | GI50 (PC-3) | GI50 (COLO 205) | GI50 (CCRF-CEM) | GI50 (HOP-92) | GI50 (HL-60) | GI50 (EKVX) | GI50 (SK-OV-3) | GI50 (OVCAR-5) | GI50 (RPMI-8226) | GI50 (U-251) | GI50 (CAKI-1) | GI50 (MOLT-4) | GI50 (SN12C) | GI50 (NCI-H226) | GI50 (LOX IMVI) | GI50 (MDA-N) | GI50 (Malme-3M)
1 | C=C1C(=O)OC2C1C(=O)C/C(C)=C/CCC1(C)OC21 (centres undefined) | 14.2 µM (inactive) | 19.5 µM (inactive) | 18.1 µM (inactive) | 5.45 µM (inactive) | 2.79 µM (inactive) | 15.2 µM (inactive) | 1.33 µM (inactive) | 25.2 µM (inactive) | 29.6 µM (inactive) | 17.7 µM (inactive) | 12.3 µM (inactive) | 19.5 µM (inactive) | 14.7 µM (inactive) | 17.3 µM (inactive) | 22.1 µM (inactive) | 15.8 µM (inactive) | 2.47 µM (inactive) |  | 
2 | C[C@H]1ON2CCC[C@@H]2[C@@H]1C(=O)N1C2CC3CCC2(CS1(=O)=O)C3(C)C (some centres undefined) | > 100 µM (inactive) | > 100 µM (inactive) | > 100 µM (inactive) | > 100 µM (inactive) | > 100 µM (inactive) |  | 0.295 µM (active) | > 100 µM (inactive) | > 100 µM (inactive) | > 100 µM (inactive) |  | > 100 µM (inactive) | > 100 µM (inactive) |  | > 100 µM (inactive) | > 100 µM (inactive) | > 100 µM (inactive) | > 100 µM (inactive) | > 100 µM (inactive)
3 | Cc1ccc(C)n1-n1c(Cc2ccccc2)n[nH]c1=O | > 100 µM (inactive) |  | > 100 µM (inactive) | 76.7 µM (inactive) | > 100 µM (inactive) |  |  | 61.7 µM (inactive) | > 100 µM (inactive) | > 100 µM (inactive) | 91.2 µM (inactive) | > 100 µM (inactive) | > 100 µM (inactive) | > 100 µM (inactive) | > 100 µM (inactive) | > 100 µM (inactive) | > 100 µM (inactive) | > 100 µM (inactive) | > 100 µM (inactive)
4 | CN(C)CCn1c(=O)oc2cc(C(=O)CN3CCOCC3)ccc21 | > 100 µM (inactive) | > 100 µM (inactive) | > 100 µM (inactive) | > 100 µM (inactive) | > 100 µM (inactive) |  | > 100 µM (inactive) | > 100 µM (inactive) | > 100 µM (inactive) | > 100 µM (inactive) | > 100 µM (inactive) | > 100 µM (inactive) | > 100 µM (inactive) | > 100 µM (inactive) | > 100 µM (inactive) | > 100 µM (inactive) | > 100 µM (inactive) | > 100 µM (inactive) | > 100 µM (inactive)
5 | S=C1Nc2ccccc2SC1c1ccccc1 (centres undefined) | 24.8 µM (inactive) | 74.6 µM (inactive) | 57.9 µM (inactive) | > 100 µM (inactive) | 2.96 µM (inactive) |  | 5.22 µM (inactive) | > 100 µM (inactive) | 35.8 µM (inactive) | > 100 µM (inactive) | > 100 µM (inactive) | 47.1 µM (inactive) | > 100 µM (inactive) | > 100 µM (inactive) | > 100 µM (inactive) | 28.6 µM (inactive) | 49.7 µM (inactive) | > 100 µM (inactive) | 92.3 µM (inactive)
6 | CN(C)c1ccc2c(NCCCCCCNc3ccnc4cc(N(C)C)ccc34)ccnc2c1 | 19.2 µM (inactive) | 10.1 µM (inactive) |  |  | 12.7 µM (inactive) |  | 6.7 µM (inactive) | 36.1 µM (inactive) | > 100 µM (inactive) | 25.2 µM (inactive) |  | 5.32 µM (inactive) | 42.6 µM (inactive) | 6 µM (inactive) | 6.79 µM (inactive) |  |  |  | 2.85 µM (inactive)
7 | CN(C)C(=O)Oc1ccc[n+](C)c1 [PYRIDOSTIGMINE BROMIDE] | > 100 µM (inactive) | > 100 µM (inactive) | > 100 µM (inactive) | > 100 µM (inactive) |  |  | > 100 µM (inactive) | > 100 µM (inactive) |  | > 100 µM (inactive) | > 100 µM (inactive) | > 100 µM (inactive) | > 100 µM (inactive) | > 100 µM (inactive) | > 100 µM (inactive) | > 100 µM (inactive) | > 100 µM (inactive) | > 100 µM (inactive) | > 100 µM (inactive)
8 | Cc1ccc(-n2nnc3c(NNc4ccccc4)n[nH]c(=O)c32)cc1 | 66.2 µM (inactive) | 72.1 µM (inactive) | 78.2 µM (inactive) | 75 µM (inactive) | 92 µM (inactive) | 23.1 µM (inactive) | 84.7 µM (inactive) | 80.7 µM (inactive) |  | > 100 µM (inactive) | > 100 µM (inactive) | 52.1 µM (inactive) | > 100 µM (inactive) | 44 µM (inactive) | > 100 µM (inactive) | 70 µM (inactive) | > 100 µM (inactive) |  | > 100 µM (inactive)
9 | Cn1cc(C=C(C#N)C#N)c(=O)n(C)c1=O | > 100 µM (inactive) | > 100 µM (inactive) | > 100 µM (inactive) | > 100 µM (inactive) |  | > 100 µM (inactive) |  | > 100 µM (inactive) | > 100 µM (inactive) | > 100 µM (inactive) | 52 µM (inactive) | > 100 µM (inactive) | > 100 µM (inactive) | 0.809 µM (active) | > 100 µM (inactive) | > 100 µM (inactive) | > 100 µM (inactive) | > 100 µM (inactive) | 
10 | N#Cc1c(-c2ccc([N+](=O)[O-])cc2)cc(-c2ccc(Nc3ccnc4cc(Cl)ccc34)cc2)[nH]c1=O | 67.3 µM (inactive) | 93.3 µM (inactive) | > 100 µM (inactive) | > 100 µM (inactive) |  | > 100 µM (inactive) | > 100 µM (inactive) | > 100 µM (inactive) | > 100 µM (inactive) | > 100 µM (inactive) | > 100 µM (inactive) | > 100 µM (inactive) | > 100 µM (inactive) | > 100 µM (inactive) |  | > 100 µM (inactive) | > 100 µM (inactive) |  | > 100 µM (inactive)
11 | Cc1ccc(S(=O)(=O)NC(CN)C(=O)O)cc1 (centres undefined) | > 100 µM (inactive) | > 100 µM (inactive) | > 100 µM (inactive) | > 100 µM (inactive) |  | > 100 µM (inactive) |  | > 100 µM (inactive) | > 100 µM (inactive) | > 100 µM (inactive) | > 100 µM (inactive) | > 100 µM (inactive) | > 100 µM (inactive) | 36.8 µM (inactive) |  | > 100 µM (inactive) | > 100 µM (inactive) | > 100 µM (inactive) | > 100 µM (inactive)
12 | NC(Cc1n[nH]c2ccccc12)C(=O)O (centres undefined) | > 100 µM (inactive) | > 100 µM (inactive) | > 100 µM (inactive) | > 100 µM (inactive) | > 100 µM (inactive) | > 100 µM (inactive) | > 100 µM (inactive) | > 100 µM (inactive) | > 100 µM (inactive) | > 100 µM (inactive) | > 100 µM (inactive) | > 100 µM (inactive) | > 100 µM (inactive) | > 100 µM (inactive) | > 100 µM (inactive) | > 100 µM (inactive) | > 100 µM (inactive) |  | > 100 µM (inactive)
13 | O=C1CN(c2cccc(C(F)(F)F)c2)C(=O)CN1NCNN1CC(=O)N(c2cccc(C(F)(F)F)c2)CC1=O | > 100 µM (inactive) |  | > 100 µM (inactive) | > 100 µM (inactive) | > 100 µM (inactive) |  | > 100 µM (inactive) | > 100 µM (inactive) | > 100 µM (inactive) | > 100 µM (inactive) | > 100 µM (inactive) | > 100 µM (inactive) |  | > 100 µM (inactive) | > 100 µM (inactive) |  |  | > 100 µM (inactive) | 
14 | CCCc1cn2c(/C=N/N=C(N)N)c(-c3c(OC)ccc(OC)c3[N+](=O)[O-])nc2s1 | 12.6 µM (inactive) | 10.9 µM (inactive) | 9.59 µM (inactive) | 2.16 µM (inactive) | 2.84 µM (inactive) | 12.5 µM (inactive) | 7.46 µM (inactive) | 18 µM (inactive) | 18.1 µM (inactive) | 15.6 µM (inactive) | 2.54 µM (inactive) | 4.74 µM (inactive) | 5.57 µM (inactive) | 1.94 µM (inactive) | 14.2 µM (inactive) | 11.4 µM (inactive) | 3.02 µM (inactive) |  | 10.3 µM (inactive)
15 | Cc1ccc2c(n1)NC(=O)C(Cc1ccccc1)(N=[N+]=[N-])C2=O (centres undefined) | > 100 µM (inactive) | > 100 µM (inactive) | > 100 µM (inactive) | > 100 µM (inactive) | > 100 µM (inactive) | > 100 µM (inactive) |  |  | > 100 µM (inactive) | > 100 µM (inactive) |  | > 100 µM (inactive) | > 100 µM (inactive) | > 100 µM (inactive) | > 100 µM (inactive) | > 100 µM (inactive) |  | > 100 µM (inactive) | > 100 µM (inactive)
16 | CC(=O)/C(=C/n1c(=S)sc2ccccc21)C(=O)Nc1ccccc1C | > 100 µM (inactive) | > 100 µM (inactive) |  | > 100 µM (inactive) |  | 41.1 µM (inactive) | 31.6 µM (inactive) | > 100 µM (inactive) | > 100 µM (inactive) | > 100 µM (inactive) |  | > 100 µM (inactive) | 48 µM (inactive) | > 100 µM (inactive) | > 100 µM (inactive) | 31.1 µM (inactive) | > 100 µM (inactive) | > 100 µM (inactive) | 
17 | O=C1C=C/C(=N/c2cccc3c(/N=C4/C=CC(=O)O4)cccc23)O1 | > 100 µM (inactive) | 50.4 µM (inactive) | 48 µM (inactive) | 20.2 µM (inactive) |  | 42.7 µM (inactive) |  | 16.8 µM (inactive) | > 100 µM (inactive) | 54.8 µM (inactive) | 23.1 µM (inactive) | > 100 µM (inactive) | 18.9 µM (inactive) | 3.72 µM (inactive) | 29.9 µM (inactive) | > 100 µM (inactive) | 27.8 µM (inactive) | 27.3 µM (inactive) | 22.2 µM (inactive)
